From patent US8518942B2, “Caspase inhibitors and uses thereof” (Buck Institute for Research on Aging, priority 2008, dated 2013)

What was measured:
caspase-2 = biological target: T1, caspase-2 (Homo sapiens, UniProt P42575); assay: Irreversible inhibitor kinetic assay (progress curve), caspase-2, substrate Ac-VDVAD-AMC; assay type: biochemical; conditions: casp-2; duplicate, SD included
T1 sequence (P42575 170-325 limits assumed): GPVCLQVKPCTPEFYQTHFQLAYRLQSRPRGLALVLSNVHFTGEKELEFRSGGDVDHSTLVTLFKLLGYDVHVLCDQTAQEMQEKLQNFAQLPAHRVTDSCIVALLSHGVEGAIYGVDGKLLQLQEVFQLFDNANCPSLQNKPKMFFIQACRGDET
T1 sequence (P42575 348-452 limits assumed): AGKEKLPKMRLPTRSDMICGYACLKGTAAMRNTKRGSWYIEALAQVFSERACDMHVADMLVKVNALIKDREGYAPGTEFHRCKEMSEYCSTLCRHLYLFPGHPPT
Source text: (§1) Caspases-3, -6, -7, -8, and -9 were provided by Guy Salvesen's laboratory at the Burnham Institute (La Jolla, Calif.). Caspase-1 was purchased from EMD Biosciences (San Diego, Calif.) and Caspase-2 was purchased from Biomol International (Plymouth Meeting, Pa.). Caspase substrates Ac-DEVD-AMC, Ac-VDVAD-AFC, and Ac-LEHD-AFC were purchased from EMD Biosciences (San Diego, Calif.) and Ac-VDVAD-AMC was purchased from Biomol International (Plymouth Meeting, Pa.). The proteolytic cleavage of N-acyl aminocoumarins by caspases was conducted in Dynatech Microfluor fluorescence 96-well microtiter plates, and readings were taken on a Molecular Devices Spectra Max Gemini XS instrument. The excitation wavelength was 370 nm and the emission wavelength was 455 nm for AMCA substrates, the excitation wavelength was 355 nm and the emission wavelength was 450 nm for peptidyl AMC substrates, and the excitation wavelength was 430 nm and the emission wavelength was 535 nm for peptidyl AFC substrates.
(§2) The kinact/Ki for inhibitors were determined under pseudo-first order conditions using the progress curve method (Eckici et al. (2006) J. Med. Chem., 49: 5728-5749; Bieth (1995) Meth. Enzymol., 248: 59-84). Assay wells contained a mixture of inhibitor and AMC or AFC substrate in buffer. Aliquots of caspase were added to each well to initiate the assay. Hydrolysis of the AMC or AFC substrate was monitored fluorometrically for 45 min. To determine the inhibition parameters, time points for which the control ([I]=0) was linear were used. For each inhibitor, a kobs was calculated for at least four different concentrations of inhibitors via a nonlinear regression of the data according to the equation P=(vi/kobs)[1−exp(−kobst) (where product formation=P, […], and the first-order rate constant=kobs). If kobs varied linearly with [I], then the association constant kass was determined by linear regression analysis using kobs=(kass[I])/(1+[S]/Km) where [S] is the concentration of the substrate. […] Inhibition was measured in duplicate and the average of is reported. […]

Caspase 3 [1] = biological target: T2, Caspase 3 (Homo sapiens, UniProt P42574); assay: Irreversible inhibitor kinetic assay (progress curve), caspase-3, substrate Ac-DEVD-AMC; assay type: biochemical; design: gift: Guy Salvesen's laboratory, Burnham Institute (La Jolla, Calif.); conditions: casp-3; duplicate, SD included
T2 sequence (P42574 29-175 limits assumed): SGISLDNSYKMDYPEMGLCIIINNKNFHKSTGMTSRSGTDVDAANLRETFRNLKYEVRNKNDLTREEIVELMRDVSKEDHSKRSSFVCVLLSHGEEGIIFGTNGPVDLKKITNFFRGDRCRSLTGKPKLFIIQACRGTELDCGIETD
T2 sequence (P42574 176-277 limits assumed): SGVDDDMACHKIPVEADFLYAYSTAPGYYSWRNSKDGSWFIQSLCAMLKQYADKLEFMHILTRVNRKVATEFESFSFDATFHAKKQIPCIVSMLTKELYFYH
Source text: as §1, §2

Hdh111Q cells = assay: Evaluation of inhibitors in Hdh111Q cells (toxicity, caspase activation); assay type: cell-based; conditions: for Hdh111Q mediated toxicity: 1-100 nM; for Caspase activation in Hdh111Q cells: FIG. 18
caspase-8 = biological target: T3, caspase-8 (Homo sapiens, UniProt Q14790); assay: Irreversible inhibitor kinetic assay (progress curve), caspase-8, substrate Ac-DEVD-AMC; assay type: biochemical; conditions: casp-8; duplicate, SD included
T3 construct: gift: Guy Salvesen's laboratory, Burnham Institute (La Jolla, Calif.)
T3 sequence (Q14790 217-374 limits assumed): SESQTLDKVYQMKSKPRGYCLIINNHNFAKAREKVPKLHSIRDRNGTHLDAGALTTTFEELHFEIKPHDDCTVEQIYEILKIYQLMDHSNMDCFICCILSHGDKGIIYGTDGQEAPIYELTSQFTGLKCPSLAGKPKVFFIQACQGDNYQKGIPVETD
T3 sequence (Q14790 385-479 limits assumed): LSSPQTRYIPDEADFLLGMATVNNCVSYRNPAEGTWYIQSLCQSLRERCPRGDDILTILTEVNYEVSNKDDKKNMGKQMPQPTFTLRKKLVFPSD
Source text: as §1, §2

Caspase 3 [2] = biological target: T2, Caspase 3; assay: Blots of full-length huntingtin (23Q & 148Q) treated with Caspase 3 plus inhibitor; assay type: biochemical; conditions: for Proteolysis of Htt at amino acid 513 (caspase-3 site): 1-100 nM; for Inhibition of Caspase 3 cleavage of full-length huntingtin (blot): 23Q & 148Q, at 0.1 μM, 1.0 μM and 10 μM; for Blocking the cleavage of Htt at amino acid 513 mediated by caspase-3: conclusion

Row | kass (kinact/Ki, footnote a) (caspase-2) [s^−1/M^−1] | kinact/Ki (Caspase 3 [1]) | kinact/Ki (caspase-8) | Proteolysis of Htt at amino acid 513 (caspase-3 site) (Caspase 3 [2]) | Inhibition of Caspase 3 cleavage of full-length huntingtin (blot) (Caspase 3 [2]) | Blocking the cleavage of Htt at amino acid 513 mediated by caspase-3 (Caspase 3 [2]) | Compound | Hdh111Q mediated toxicity (Hdh111Q cells) | Caspase activation in Hdh111Q cells (Hdh111Q cells) | Rank of potency in blocking caspase activation in Hdh111Q cells (Hdh111Q cells; among MJL-001i, MJL-002i, MJL-003i)
1 | 2.0 ± 0.1 | 81,700 ± 6,900 s^−1/M^−1 | 30,650 ± 1,950 s^−1/M^−1 | blocked | inhibition | affective at blocking | C[C@@](NC(=O)CCCC(=O)O)(c1cn([C@@H](CC(=O)O)C(=O)COc2c(F)c(F)cc(F)c2F)nn1)C1CCCCC1 [MJL-002i] | suppressed | block | –
2 | 6.90 ± 0.3 | 29,850 ± 850 s^−1/M^−1 | 60,000 ± 2,800 s^−1/M^−1 | blocked | inhibition | affective at blocking | C[C@@](NC(=O)Cc1ccccc1)(c1cn([C@@H](CC(=O)O)C(=O)COc2c(F)c(F)cc(F)c2F)nn1)C1CCCCC1 [MJL-003i] | suppressed | block | most potent
3 | 33.0 ± 0.5 | 47,000 ± 1,400 s^−1/M^−1 | 82,850 ± 1,150 s^−1/M^−1 | blocked | inhibition | affective at blocking | C[C@@](NS(=O)(=O)Cc1ccccc1)(c1cn([C@@H](CC(=O)O)C(=O)COc2c(F)c(F)cc(F)c2F)nn1)C1CCCCC1 [MJL-001i] | suppressed | block | –
